Assay results as given in the supplement of paper PMC11061612.

Experiments:
[1] = tested on: BICR22 (Oral Cavity Carcinoma); test: Bliss excess, mean over the matrix (fraction); higher = more synergy
In short: (§1)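 Cell lines grown in DMEM/F12 or RPMI with 10% FBS were plated in 1536-well plates and held 24 hours at 37°C, 5% CO2 before 72 hours of exposure to two-drug dose matrices, with DMSO typically at 0.2%. CellTiter-Glo 2.0 luminescence gave viability, which was converted to inhibition. Vehicle wells were set to 0 and blank wells to 1. Combination Emax is the second-highest inhibition in the matrix, and Bliss excess is the observed combination effect minus the expected EA + EB − EA·EB, where EA and EB are the single-agent effects.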

[2] = tested on: CAPAN-2 (Pancreatic Carcinoma); test: as above
In short: as §1

[3] = tested on: CCK-81 (Colorectal Carcinoma); test: as above
In short: as §1

[4] = tested on: COLO-320-HSR (Colorectal Carcinoma); test: as above
In short: as §1

[5] = tested on: ECC10 (Gastric Carcinoma); test: as above
In short: as §1

[6] = tested on: FU97 (Gastric Carcinoma); test: as above
In short: as §1

[7] = tested on: IGR-37 (Melanoma); test: as above
In short: as §1

[8] = tested on: KARPAS-422 (B-Cell Non-Hodgkin's Lymphoma); test: as above
In short: as §1

[9] = tested on: NCI-H1581 (Non-Small Cell Lung Carcinoma); test: as above
In short: as §1

[10] = tested on: NCI-H1666 (Lung Adenocarcinoma); test: as above
In short: as §1

[11] = tested on: NCI-H2066 (Squamous Cell Lung Carcinoma); test: as above
In short: as §1

[12] = tested on: NCI-H64 (Small Cell Lung Carcinoma); test: as above
In short: as §1

[13] = tested on: NY (Osteosarcoma); test: as above
In short: as §1

[14] = tested on: ONS-76 (Other Solid Carcinomas); test: as above
In short: as §1

[15] = tested on: PANC-10-05 (Pancreatic Carcinoma); test: as above
In short: as §1

[16] = tested on: TT (Thyroid Gland Carcinoma); test: as above
In short: as §1

[17] = tested on: U-2-OS (Osteosarcoma); test: as above
In short: as §1

[18] = tested on: VCaP (Prostate Carcinoma); test: as above
In short: as §1

[19] = tested on: BICR22 (Oral Cavity Carcinoma); test: combination Emax (second highest fraction inhibited in the dose matrix, 72 h); higher = more inhibition; extreme values may be limits of the assay
In short: as §1

[20] = tested on: CAPAN-2 (Pancreatic Carcinoma); test: as above
In short: as §1

[21] = tested on: CCK-81 (Colorectal Carcinoma); test: as above
In short: as §1

[22] = tested on: COLO-320-HSR (Colorectal Carcinoma); test: as above
In short: as §1

[23] = tested on: ECC10 (Gastric Carcinoma); test: as above
In short: as §1

[24] = tested on: FU97 (Gastric Carcinoma); test: as above
In short: as §1

[25] = tested on: IGR-37 (Melanoma); test: as above
In short: as §1

[26] = tested on: KARPAS-422 (B-Cell Non-Hodgkin's Lymphoma); test: as above
In short: as §1

[27] = tested on: NCI-H1581 (Non-Small Cell Lung Carcinoma); test: as above
In short: as §1

[28] = tested on: NCI-H1666 (Lung Adenocarcinoma); test: as above
In short: as §1

[29] = tested on: NCI-H2066 (Squamous Cell Lung Carcinoma); test: as above
In short: as §1

[30] = tested on: NCI-H64 (Small Cell Lung Carcinoma); test: as above
In short: as §1

[31] = tested on: NY (Osteosarcoma); test: as above
In short: as §1

[32] = tested on: ONS-76 (Other Solid Carcinomas); test: as above
In short: as §1

[33] = tested on: PANC-10-05 (Pancreatic Carcinoma); test: as above
In short: as §1

[34] = tested on: TT (Thyroid Gland Carcinoma); test: as above
In short: as §1

[35] = tested on: U-2-OS (Osteosarcoma); test: as above
In short: as §1

[36] = tested on: VCaP (Prostate Carcinoma); test: as above
In short: as §1
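Throughout, for Bliss excess, mean over the matrix: after 72 h of two-drug dosing.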

| SMILES | Bliss excess [1] | Bliss excess [2] | Bliss excess [3] | Bliss excess [4] | Bliss excess [5] | Bliss excess [6] | Bliss excess [7] | Bliss excess [8] | Bliss excess [9] | Bliss excess [10] | Bliss excess [11] | Bliss excess [12] | Bliss excess [13] | Bliss excess [14] | Bliss excess [15] | Bliss excess [16] | Bliss excess [17] | Bliss excess [18] | combination Emax [19] | combination Emax [20] | combination Emax [21] | combination Emax [22] | combination Emax [23] | combination Emax [24] | combination Emax [25] | combination Emax [26] | combination Emax [27] | combination Emax [28] | combination Emax [29] | combination Emax [30] | combination Emax [31] | combination Emax [32] | combination Emax [33] | combination Emax [34] | combination Emax [35] | combination Emax [36] |
| --- | --- | --- | --- | --- | --- | --- | --- | --- | --- | --- | --- | --- | --- | --- | --- | --- | --- | --- | --- | --- | --- | --- | --- | --- | --- | --- | --- | --- | --- | --- | --- | --- | --- | --- | --- | --- |
| CC1(C)CCC(CN2CCN(c3ccc(C(=O)NS(=O)(=O)c4ccc(NCC5CCOCC5)c([N+](=O)[O-])c4)c(Oc4cnc5[nH]ccc5c4)c3)CC2)=C(c2ccc(Cl)cc2)C1 [Venetoclax] + CS(=O)(=O)CCNCc1ccc(-c2ccc3ncnc(Nc4ccc(OCc5cccc(F)c5)c(Cl)c4)c3c2)o1 [Lapatinib] (first compound max 1 µM, 7x7, partner max 10 µM) | -0.0287 | -0.0425 | -0.0352 | -0.0048 | 0.0105 | 0.0218 | 0.0223 | 0.049 | -0.0136 | -0.0214 | -0.0203 | -0.0068 | -0.0008 | -0.0055 | -0.0426 | -0.0344 | -0.044 | -0.0449 | 0.21 | 0.115 | 0.892 | 0.169 | 0.94 | 0.813 | 0.253 | 0.884 | 0.242 | 0.568 | 0.352 | 0.21 | 0.226 | 0.228 | 0.353 | 0.121 | 0.0668 | 0.109 |
| Cc1cc2ncnn2cc1Nc1ncc2c(n1)n(C1CCOCC1)c(=O)n2C [AZD7648] + COc1cc([C@@H]2c3cc4c(cc3[C@@H](O[C@@H]3O[C@@H]5CO[C@@H](C)O[C@H]5[C@H](O)[C@H]3O)[C@H]3COC(=O)[C@H]23)OCO4)cc(OC)c1O [Etoposide] (first compound max 10 µM, 7x7, partner max 10 µM) | 0.13 | 0.0103 | 0.093 | 0.0573 | 0.108 | -0.0016 | 0.0178 | -0.0391 | 0.0368 | 0.0131 | -0.03 | -0.0142 | 0.0475 | 0.0815 | 0.0148 | 0.0627 | 0.0528 | 0.0464 | 0.856 | 0.186 | 0.565 | 0.606 | 0.913 | 0.298 | 0.703 | 0.884 | 0.787 | 0.401 | 0.332 | 0.316 | 0.654 | 0.748 | 0.636 | 0.431 | 0.647 | 0.579 |
| C[C@@H](Nc1cc(F)cc(F)c1)c1cc(C(=O)N(C)C)cc2c(=O)cc(N3CCOCC3)oc12 [AZD8186] + CC(=O)c1c(C)c2cnc(Nc3ccc(N4CCNCC4)cn3)nc2n(C2CCCC2)c1=O [Palbociclib] (first compound max 10 µM, 7x7, partner max 10 µM) | -0.0275 | 0.0182 | 0.0824 | 0.0312 | 0.08 | 0.0755 | 0.0795 | 0.018 | 0.085 | -0.0433 | -0.0299 | 0.0127 | 0.0895 | 0.0763 | -0.0689 | 0.0582 | 0.0498 | 0.0706 | 0.192 | 0.213 | 0.418 | 0.382 | 0.661 | 0.386 | 0.464 | 0.707 | 0.651 | 0.454 | 0.319 | 0.469 | 0.408 | 0.424 | 0.383 | 0.416 | 0.391 | 0.371 |
| O=C(c1cc(Cc2n[nH]c(=O)c3ccccc23)ccc1F)N1CCN(C(=O)C2CC2)CC1 [Olaparib] + COc1nnc2ccc(N3CCC(c4ccc(OCCN5CCN(C)C(=O)[C@H]5C)cc4)CC3)nn12 [AZD5153] (first compound max 10 µM, 7x7, partner max 1 µM) | -0.0477 | -0.0267 | -0.0643 | -0.0311 | -0.0196 | -0.0372 | -0.0984 | -0.0132 | 0.0078 | -0.0544 | -0.0865 | -0.0338 | -0.0877 | -0.0463 | -0.0072 | -0.0615 | -0.0312 | -0.082 | 0.0626 | 0.186 | 0.756 | 0.373 | 0.786 | 0.762 | 0.58 | 0.66 | 0.506 | 0.409 | 0.286 | 0.239 | 0.473 | 0.474 | 0.401 | 0.48 | 0.285 | 0.707 |
| CN(CCO)CC[C@H](CSc1ccccc1)Nc1ccc(S(=O)(=O)NC(=O)c2ccc(N3CCC([C@@H](O)c4ccccc4-c4ccc(Cl)cc4)CC3)cc2)cc1S(=O)(=O)C(F)(F)F [AZD4320] + CC(=O)O[C@H]1C(=O)[C@@]2(C)[C@H]([C@H](OC(=O)c3ccccc3)[C@]3(O)C[C@H](OC(=O)[C@H](O)[C@@H](NC(=O)c4ccccc4)c4ccccc4)C(C)=C1C3(C)C)[C@]1(OC(C)=O)CO[C@@H]1C[C@@H]2O [Paclitaxel] (first compound max 1 µM, 7x7, partner max 3 µM) | -0.0024 | 0.0494 | -0.0433 | 0.0041 | 0.0272 | 0.101 | -0.0174 | 0.141 | 0.0126 | 0.112 | 0.124 | 0.237 | -0.0067 | 0.0661 | -0.0275 | 0.184 | 0.0272 | 0.0175 | 0.981 | 0.853 | 1 | 0.791 | 1 | 0.433 | 0.938 | 0.999 | 0.99 | 0.841 | 0.856 | 1 | 0.981 | 0.919 | 0.64 | 0.665 | 0.922 | 0.881 |
| Cc1nc(-c2cn3c(n2)-c2ccc(-c4cnn(C(C)(C)C(N)=O)c4)cc2OCC3)n(C(C)C)n1 [Taselisib] + O=C(Nc1ccc2[nH]nc(-c3ccncc3)c2c1)[C@@H]1CCN(CC(=O)N2CCN(c3ccc(-c4ncccn4)cc3)CC2)C1 [SCH772984] (first compound max 10 µM, 7x7, partner max 5 µM) | 0.116 | 0.0241 | 0.0528 | -0.0441 | 0.124 | 0.0139 | 0.0732 | 0.0406 | 0.178 | 0.0878 | 0.0133 | 0.0028 | 0.0687 | 0.0608 | 0.0166 | 0.106 | 0.112 | -0.0098 | 0.966 | 0.521 | 0.988 | 0.419 | 1 | 0.404 | 0.938 | 0.554 | 0.635 | 0.881 | 0.681 | 0.377 | 0.564 | 0.976 | 0.809 | 0.568 | 0.993 | 0.587 |
| C=CCn1c(=O)c2cnc(Nc3ccc(N4CCN(C)CC4)cc3)nc2n1-c1cccc(C(C)(C)O)n1 [AZD1775] + Nc1ccn([C@@H]2O[C@H](CO)[C@@H](O)C2(F)F)c(=O)n1 [Gemcitabine] (first compound max 1 µM, partner max 0.3 µM) | -0.0077 | -0.065 | -0.0665 | 0.0066 | 0.0012 | -0.0313 | -0.0346 | -0.0482 | 0.124 | -0.0561 | -0.0678 | -0.0098 | -0.0595 | -0.0804 | -0.0504 | -0.0228 | 0.029 | -0.0094 | 0.943 | 0.43 | 0.81 | 0.811 | 0.821 | 0.362 | 0.674 | 0.847 | 0.948 | 0.46 | 0.217 | 0.905 | 0.7 | 0.559 | 0.631 | 0.486 | 0.724 | 0.839 |
